According to patent publication US20250295639A1, “METHODS FOR TREATING HEART DISEASES” (Cytokinetics, Incorporated, priority 2024, published 2025):
Values joined by “and” are separate entries in the source; they are usually repeats but may differ in a detail not shown here. Identical values can stand only once.

Legend:
[1] = tested on: patients with symptomatic oHCM; assay: SEQUOIA-HCM secondary analysis: clinical response / responder analyses (NYHA class, KCCQ-CSS, hemodynamic response, exercise capacity); format: in vivo, human
From the text: A secondary objective of this trial was to evaluate the effect of aficamten on patient health status, as determined by changes in the Kansas City Cardiomyopathy Questionnaire-Clinical Summary Score (KCCQ-CSS) from baseline to Week 12 and Week 24. A further secondary objective of this trial was to evaluate the effect of aficamten on New York Heart Association (NYHA) Functional Classification, as determined by the proportion of patients with ≥1 class improvement in NYHA Functional Class from baseline to Week 12 and Week 24. An exploratory objective of this trial was to evaluate the effect of aficamten on exercise capacity and functional class, as determined by comparing with baseline, the number of patients at Week 24 achieving either (1) change from baseline of ≥1.5 mL/kg/min in pVO2 AND ≥1 class improvement in NYHA Functional Class; or (2) Change from baseline of ≥3.0 mL/kg/min in pVO2 AND no worsening of NYHA Functional Class. A further exploratory objective of this trial was to evaluate the effect of aficamten on patient response over time, as determined by (1) […]; (2) proportion of patients with resting LVOT-G<30 mmHg, post-Valsalva LVOT-G<50 mmHg, […]; and (3) proportion of patients with resting LVOT-G<30 mmHg, post-Valsalva LVOT-G<50 mmHg, […] Secondary Analysis of the Results of the SEQUOIA-HCM Study. In a sub-analysis of the results of Example 8 (i.e, the results of the SEQUOIA-HCM Study) we sought to comprehensively characterize the broad clinical impact of aficamten with respect to responder analyses across a number of clinically relevant, patient-centric outcome domains. […] For patients with missing data, the last available observation (week 8 to week 20) was used. Patients with no available data on or after week 8 were classified as not meeting the efficacy criteria. Patients were then classified according to the number of efficacy outcome definitions that they met. Baseline characteristics were summarized using means and standard deviations or median and interquartile for continuous normal and skewed variables, as well as counts and percentages for categorical variables. These characteristics were compared across groups using trend tests (linear regression, chi-squared tests of trend, and Cuzick's non-parametric trend tests). Proportions of patients meeting each efficacy outcome definition were compared between treatment groups using chi-squared tests, and linear regression was used to assess the treatment effect of aficamten vs placebo on change in efficacy outcomes while also adjusting for baseline value, CPET modality at baseline and beta blocker use at baseline. No adjustments were made for multiple comparisons. Two-sided p-values less than 0.05 were considered statistically significant.

[2] = tested on: patients with symptomatic oHCM; assay: SEQUOIA-HCM: patient-reported health status KCCQ-OSS and SAQ-SS; format: in vivo, human
Description: Effect of Aficamten on Patient-Reported Health Status in Obstructive Hypertrophic Cardiomyopathy. Participants were randomized to aficamten or placebo with standard-of-care therapy for 24 weeks followed by a 4-week washout period. The Kansas City Cardiomyopathy Questionnaire (KCCQ) and Seattle Angina Questionnaire (SAQ) were administered at each study visit. Changes in mean KCCQ Overall Summary score (KCCQ-OSS) and SAQ Summary score (SAQ-SS) from baseline to week 24 were compared by treatment group using linear regression, adjusting for randomization strata. Proportions of patients with clinically important changes were compared.

[3] = 142 patients treated with aficamten
[4] = of the 101 aficamten symptomatic responders
[5] = aficamten arm, week 28 compared with week 24

CCc1nc(-c2ccc3c(c2)CC[C@H]3NC(=O)c2cnn(C)c2)no1 [aficamten, (R)—N-(5-(5-ethyl-1,2,4-oxadiazol-3-yl)-2,3-dihydro-1H-inden-1-yl)-1-methyl-1H-pyrazole-4-carboxamide]
patients with moderate to large KCCQ-CSS improvement of ≥10 to <20 ([1]; 142 patients on aficamten): 27%
patients with no change or a decrease in KCCQ-CSS score (<5 points) ([1]; 142 patients on aficamten): 37%
patients with small KCCQ-CSS improvement of ≥5 to <10 ([1]; 142 patients on aficamten): 13%
patients with very large KCCQ-CSS change of ≥20 ([1]; 142 patients on aficamten): 22%
patients improved from NYHA class II to I [1, 3]: 39%
patients improved from NYHA class III to I [1, 3]: 11%
patients improved from NYHA class III to II [1, 3]: 9%
patients with no change in NYHA class [1, 3]: 38%
patients worsened from NYHA class II to class III [1, 3]: 2%
>1.5 mL/kg/min increase in pVO2 and ≥1 NYHA class improvement or ≥3.0 mL/kg/min increase in pVO2 and no worsening of NYHA class ([1]; Aficamten (N = 142)): 60 (42) n (%)
≥1.5 mL/kg/min increase in pVO2 and ≥1 NYHA class improvement ([1]; Aficamten (N = 142)): 44 (31) n (%)
≥3.0 mL/kg/min increase in pVO2 and no worsening of NYHA class ([1]; Aficamten (N = 142)): 37 (26) n (%)
≥3.0 mL/kg/min increase in pVO2 and ≥1 NYHA class improvement ([1]; Aficamten (N = 142)): 21 (15) n (%)
responder endpoint, difference vs. placebo ([1]; Week 24): 28.7%
responder endpoint, number needed to treat (NNT) ([1]; Week 24): 3
patients with improvement of ≥1 NYHA functional class and/or ≥10 point increase in KCCQ-CSS (symptomatic response) ([1]; aficamten group, week 2): 36%
patients with complete hemodynamic response (rest gradient <30 mmHg and Valsalva gradient <50 mmHg) ([1]; aficamten group, week 8): 70%
patients with improvement of ≥1 NYHA functional class and/or ≥10 point increase in KCCQ-CSS (symptomatic response) ([1]; aficamten group, week 8): 58%
patients achieving ≥1 of the 4 prespecified clinical response measures ([1]; aficamten group, week 24): 97%
patients improved in 2 clinical response measures ([1]; aficamten group, week 24): 26%
patients improved in 3 clinical response measures ([1]; aficamten group, week 24): 39%
patients improved in all 4 clinical response measures ([1]; aficamten group, week 24): 23%
patients who achieved one clinical response measure ([1]; aficamten group, week 24): 9%
patients with improvement in exercise capacity, pVO2 of ≥1.5 mL/kg/min ([1]; aficamten group, week 24): 47%
patients with improvement of ≥1 NYHA functional class and/or ≥10 point increase in KCCQ-CSS (symptomatic response) ([1]; aficamten group, week 24): 71%
patients meeting responder endpoint (pVO2 ≥1.5 mL/kg/min and ≥1 NYHA improvement, or pVO2 ≥3.0 mL/kg/min and no worsening in NYHA) ([1]; aficamten, Week 24): 42% and 42.3%
patients who achieved pVO2 of ≥1.5 mL/kg/min and ≥1 improvement in NYHA class ([1]; aficamten, Week 24): 31%
patients with pVO2 ≥3.0 mL/kg/min and no worsening in NYHA ([1]; aficamten, Week 24): 26%
patients who resolved their symptoms completely (NYHA class I) ([1]; end of the treatment period): close to half of patients
symptomatic responders with improvement in both NYHA and KCCQ [1, 4]: 51%
symptomatic responders with ≤10 point improvement in KCCQ but ≥1 improvement in NYHA functional class [1, 4]: 31%
symptomatic responders with ≥10 point improvement in KCCQ-CSS and no improvement in NYHA class [1, 4]: 18%
Common Rate Difference (vs. Placebo) ([1]; pVO2/NYHA composite responder): 29
change in KCCQ-OSS after treatment withdrawal [2, 5]: −16.2±19.0
change in SAQ-OSS after treatment withdrawal [2, 5]: −17.4±21.4
24-week improvement in KCCQ-OSS (mean±SD) ([2]; aficamten group): 13.3±16.3
24-week improvement in SAQ-SS (mean±SD) ([2]; aficamten group): 11.6±17.4
patients with very large improvements (≥20 points) in KCCQ-OSS ([2]; aficamten-treated, week 24): 29.7%
patients with very large improvements (≥20 points) in SAQ-SS ([2]; aficamten-treated, week 24): 31.2%
heterogeneity of treatment benefit (KCCQ-OS, SAQ-SS) across subgroups incl. beta-blocker use at baseline ([2]; human, in vivo): No heterogeneity of treatment benefit
SAQ-SS improvement with aficamten ([2]; subgroup baseline SAQ-SS 75-100): 4.2
greater change with aficamten in SAQ-SS ([2]; subgroup baseline SAQ-SS<50): 15.6 points
very large improvement in KCCQ-OSS, NNT ([2]; vs placebo): 5.8
very large improvement in SAQ-SS, NNT ([2]; vs placebo): 5.8
